# Tests used:
# Italian ryegrass = test: Test C pre-/postemergence test; format: in vivo, Lolium multiflorum
# Method in brief: (§1)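 Compounds in a non-phytotoxic solvent with surfactant applied preemergence to seeded pots and, at the same time, postemergence to plants 2–18 cm tall (1- to 4-leaf stage). Paddy tests: pots flooded to 3 cm, compound applied into the water, depth held throughout.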
# crabgrass [1] = test: Test C pre-/postemergence test; format: in vivo, Digitaria sanguinalis
# Method in brief: as §1
# soybean = test: Test C pre-/postemergence test; format: in vivo, Glycine max; conditions: for Soybean plant response rating: preemergence, scale 0 (no effect) to 100 (complete control)
# Method in brief: as §1
# corn [2] = test: Test A pre-/postemergence greenhouse test; format: in vivo, Zea mays; conditions: for Plant response rating, Corn: 0 to 100 scale where 0 is no effect and 100 is complete control; for Corn plant response rating: 0 to 100 scale
# Method in brief: (§2)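 Greenhouse herbicide screen, pre- and postemergence in parallel. Soil: loam plus sand. Formulation: non-phytotoxic solvent mix with surfactant. Postemergence stage: one to two leaves, 2–10 cm height. Evaluation: visual injury, compared with untreated controls, about 10 days after treatment.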
# barnyardgrass [3] = test: Test C flooded paddy test; format: in vivo, Echinochloa crus-galli; conditions: Flood, scale 0 to 100, 0 no effect, 100 complete control, 13 to 15 days
# Method in brief: (§3)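 Pots were flooded to 3 cm above the soil surface at treatment, compound applied directly to the paddy water, and that depth held throughout. Plants were kept in a greenhouse for 13 to 15 days, then visually rated against untreated controls.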
# green foxtail = test: Test C pre-/postemergence test; format: in vivo, Setaria viridis
# Method in brief: as §1
# yellow nutsedge = test: Test C pre-/postemergence test; format: in vivo, Cyperus esculentus
# Method in brief: as §1
# barnyardgrass [4] = test: Test A pre-/postemergence greenhouse test; format: in vivo, Echinochloa crus-galli; conditions: for Plant response rating, Barnyardgrass: 0 to 100 scale where 0 is no effect and 100 is complete control; for Barnyardgrass plant response rating: 0 to 100 scale
# Method in brief: as §2
# crabgrass [5] = test: Test A pre-/postemergence greenhouse test; format: in vivo, Digitaria sanguinalis; conditions: for Plant response rating, Crabgrass, Large: 0 to 100 scale where 0 is no effect and 100 is complete control; for Crabgrass, Large plant response rating: 0 to 100 scale
# Method in brief: as §2
# johnsongrass = test: Test C pre-/postemergence test; format: in vivo, Sorghum halepense
# Method in brief: as §1
# velvetleaf = test: Test A pre-/postemergence greenhouse test; format: in vivo, Abutilon theophrasti; conditions: for Plant response rating, Velvetleaf: 0 to 100 scale where 0 is no effect and 100 is complete control; for Velvetleaf plant response rating: 0 to 100 scale
# Method in brief: as §2
# duck salad = test: Test C flooded paddy test; format: in vivo, Heteranthera limosa; conditions: Flood, scale 0 to 100, 0 no effect, 100 complete control, 13 to 15 days
# Method in brief: as §3
# pigweed = test: Test C pre-/postemergence test; format: in vivo, Amaranthus retroflexus
# Method in brief: as §1
# Goosegrass = test: Test C pre-/postemergence test; format: in vivo, Eleusin indica
# Method in brief: as §1
# bermudagrass = test: Test C pre-/postemergence test; format: in vivo, Cynodon dactylon
# Method in brief: as §1
# umbrella sedge = test: Test C flooded paddy test; format: in vivo, Cyperus difformis; conditions: Flood, 250 g ai/ha; scale 0 to 100, 0 no effect, 100 complete control; 13 to 15 days
# Method in brief: as §3
# corn [6] = test: Test C pre-/postemergence test; format: in vivo, Zea mays
# Method in brief: as §1
# [7] = 62 g ai/ha, Preemergence, scale 0 to 100
# [8] = 125 g ai/ha, preemergence, scale 0 (no effect) to 100 (complete control)
# [9] = Postemergence, 125 g ai/ha, scale 0 to 100, 0 no effect, 100 complete control
# [10] = Postemergence, 250 g ai/ha, scale 0 to 100, 0 no effect, 100 complete control
# [11] = Preemergence, 31 g ai/ha, scale 0 to 100 (0 no effect, 100 complete control)
# [12] = preemergence, 250 g ai/ha, scale 0 (no effect) to 100 (complete control)
# [13] = Postemergence, 62 g ai/ha, scale 0 to 100, 0 no effect, 100 complete control
# [14] = Postemergence, 500 g ai/ha, 0 is no effect, 100 is complete control
# [15] = Preemergence, 125 g ai/ha, 0 no effect, 100 complete control
smiles,measurement,setting,value
[O-][n+]1cc(Cl)ccc1[S+]([O-])Cc1c(C(F)(F)F)nn(CC(F)(F)F)c1Cl (stereo not shown) [Compound 47],"Ryegrass, Italian plant response rating",Italian ryegrass; [7],20
same,"Ryegrass, Italian plant response rating",Italian ryegrass; [8],50
same,"Plant response rating (0 to 100), Ryegrass, Italian","Italian ryegrass; Postemergence, 31 g ai/ha",0
same,"Plant response rating (0 to 100), Ryegrass, Italian","Italian ryegrass; Postemergence, 62 g ai/ha",0
same,"Plant response rating, Ryegrass, Italian",Italian ryegrass; [9],0
same,"Plant response rating, Ryegrass, Italian",Italian ryegrass; [10],40
same,"Plant response rating, Ryegrass, Italian",Italian ryegrass; [11],0
same,"Ryegrass, Italian plant response rating",Italian ryegrass; [12],85
same,"Crabgrass, Large plant response rating",crabgrass [1]; [7],100
same,"Crabgrass, Large plant response rating",crabgrass [1]; [8],100
same,"Plant response rating (0 to 100), Crabgrass, Large","crabgrass [1]; Postemergence, 31 g ai/ha",0
same,"Plant response rating, Crabgrass, Large",crabgrass [1]; [13],0
same,"Plant response rating, Crabgrass, Large",crabgrass [1]; [9],0
same,"Plant response rating, Crabgrass, Large",crabgrass [1]; [10],30
same,"Plant response rating, Crabgrass, Large",crabgrass [1]; [11],98
same,"Crabgrass, Large plant response rating",crabgrass [1]; [12],100
same,Soybean plant response rating,soybean; 125 g ai/ha,60
same,"Plant response rating (0 to 100), Soybean","soybean; Postemergence, 31 g ai/ha",5
same,"Plant response rating (0 to 100), Soybean","soybean; Postemergence, 62 g ai/ha",15
same,"Plant response rating, Soybean",soybean; [9],20
same,"Plant response rating, Soybean",soybean; [10],50
same,"Plant response rating, Soybean",soybean; [11],0
same,Soybean plant response rating,soybean; 250 g ai/ha,80
same,"Plant response rating, Corn","corn [2]; Postemergence, 125 g ai/ha",50
same,Corn plant response rating,corn [2]; [14],70
same,Corn plant response rating,corn [2]; [15],50
same,"Plant response rating, Corn","corn [2]; Preemergence, 500 g ai/ha",90
same,"Plant response rating, Barnyardgrass",barnyardgrass [3]; 62 g ai/ha,50
same,"Plant response rating, Barnyardgrass",barnyardgrass [3]; 250 g ai/ha,80
same,"Foxtail, Green plant response rating",green foxtail; [7],85
same,"Foxtail, Green plant response rating",green foxtail; [8],90
same,"Plant response rating (0 to 100), Foxtail, Green","green foxtail; Postemergence, 31 g ai/ha",0
same,"Plant response rating, Foxtail, Green",green foxtail; [13],0
same,"Plant response rating, Foxtail, Green",green foxtail; [9],5
same,"Plant response rating, Foxtail, Green",green foxtail; [10],80
same,"Plant response rating, Foxtail, Green",green foxtail; [11],70
same,"Foxtail, Green plant response rating",green foxtail; [12],100
same,"Nutsedge, Yellow plant response rating",yellow nutsedge; [7],30
same,"Nutsedge, Yellow plant response rating",yellow nutsedge; [8],40
same,"Plant response rating (0 to 100), Nutsedge, Yellow","yellow nutsedge; Postemergence, 31 g ai/ha",0
same,"Plant response rating, Nutsedge, Yellow",yellow nutsedge; [13],0
same,"Plant response rating, Nutsedge, Yellow",yellow nutsedge; [9],0
same,"Plant response rating, Nutsedge, Yellow",yellow nutsedge; [10],60
same,"Plant response rating, Nutsedge, Yellow",yellow nutsedge; [11],0
same,"Nutsedge, Yellow plant response rating",yellow nutsedge; [12],100
same,"Plant response rating, Barnyardgrass","barnyardgrass [4]; Postemergence, 125 g ai/ha",80
same,Barnyardgrass plant response rating,barnyardgrass [4]; [14],90
same,Barnyardgrass plant response rating,barnyardgrass [4]; [15],90
same,"Plant response rating, Barnyardgrass","barnyardgrass [4]; Preemergence, 500 g ai/ha",100
same,"Plant response rating, Crabgrass, Large","crabgrass [5]; Postemergence, 125 g ai/ha",80
same,"Crabgrass, Large plant response rating",crabgrass [5]; [14],90
same,"Crabgrass, Large plant response rating",crabgrass [5]; [15],80
same,"Plant response rating, Crabgrass, Large","crabgrass [5]; Preemergence, 500 g ai/ha",100
same,Johnsongrass plant response rating,johnsongrass; [7],90
same,Johnsongrass plant response rating,johnsongrass; [8],100
same,"Plant response rating (0 to 100), Johnsongrass","johnsongrass; Postemergence, 31 g ai/ha",0
same,"Plant response rating, Johnsongrass",johnsongrass; [13],0
same,"Plant response rating, Johnsongrass",johnsongrass; [9],0
same,"Plant response rating, Johnsongrass",johnsongrass; [10],85
same,"Plant response rating, Johnsongrass",johnsongrass; [11],85
same,Johnsongrass plant response rating,johnsongrass; [12],100
same,"Plant response rating, Velvetleaf","velvetleaf; Postemergence, 125 g ai/ha",60
same,Velvetleaf plant response rating,velvetleaf; [14],70
same,Velvetleaf plant response rating,velvetleaf; [15],0
same,"Plant response rating, Velvetleaf","velvetleaf; Preemergence, 500 g ai/ha",100
same,"Plant response rating, Ducksalad",duck salad; 62 g ai/ha,75
same,"Plant response rating, Ducksalad",duck salad; 250 g ai/ha,90
same,Pigweed plant response rating,pigweed; [7],100
same,Pigweed plant response rating,pigweed; [8],100
same,"Plant response rating (0 to 100), Pigweed","pigweed; Postemergence, 31 g ai/ha",0
same,"Plant response rating (0 to 100), Pigweed","pigweed; Postemergence, 62 g ai/ha",0
same,"Plant response rating, Pigweed",pigweed; [9],0
same,"Plant response rating, Pigweed",pigweed; [10],45
same,"Plant response rating, Pigweed",pigweed; [11],70
same,Pigweed plant response rating,pigweed; [12],100
same,Goosegrass plant response rating,Goosegrass; [7],100
same,Goosegrass plant response rating,Goosegrass; [8],100
same,"Plant response rating (0 to 100), Goosegrass","Goosegrass; Postemergence, 31 g ai/ha",0
same,"Plant response rating, Goosegrass",Goosegrass; [13],0
same,"Plant response rating, Goosegrass",Goosegrass; [9],0
same,"Plant response rating, Goosegrass",Goosegrass; [10],60
same,"Plant response rating, Goosegrass",Goosegrass; [11],98
same,Goosegrass plant response rating,Goosegrass; [12],100
same,Bermudagrass plant response rating,"bermudagrass; 62 g ai/ha, Preemergence, scale 0 to 100 (0 no effect, 100 complete control)",100
same,Bermudagrass plant response rating,bermudagrass; [8],100
same,"Plant response rating (0 to 100), Bermudagrass","bermudagrass; Postemergence, 31 g ai/ha",0
same,"Plant response rating, Bermudagrass",bermudagrass; [13],0
same,"Plant response rating, Bermudagrass",bermudagrass; [9],0
same,"Plant response rating, Bermudagrass",bermudagrass; [10],0
same,"Plant response rating, Bermudagrass",bermudagrass; [11],80
same,Bermudagrass plant response rating,bermudagrass; [12],100
same,"Plant response rating, Sedge, Umbrella",umbrella sedge,100
same,Corn plant response rating,corn [6]; [7],50
same,Corn plant response rating,corn [6]; [8],98
same,"Plant response rating (0 to 100), Corn","corn [6]; Postemergence, 31 g ai/ha",0
same,"Plant response rating, Corn",corn [6]; [13],0
same,"Plant response rating, Corn",corn [6]; [9],0
same,"Plant response rating, Corn",corn [6]; [10],60
same,"Plant response rating, Corn",corn [6]; [11],45
same,Corn plant response rating,corn [6]; [12],98

# Reference: patent publication US20100298141A1, “SUBSTITUTED PYRIDINE N-OXIDE HERBICIDES” (E. I. DU PONT DE NEMOURS AND COMPANY, priority 2007, published 2010)
